Data as given in patent publication US20260207585A1, “METHODS AND COMPOSITIONS FOR THE TREATMENT OF PARKINSON'S DISEASE, HUNTINGTON'S DISEASE, AMYOTROPHIC LATERAL SCLEROSIS, AND LEARNING DISORDERS” (Cedars-Sinai Medical Center, priority 2022, published 2026).
Like-named read-outs stand apart in the source and are kept apart here.

What was measured:
DNMT1 = DNMT1 (Homo sapiens, UniProt P26358); test: Methyltransferase inhibition panel: DNMT1; type: biochemical
Experimental: (§1) The ability of ETP69 to inhibit methyltransferases was tested.

DNMT3b/3L = DNMT3b/3L (Homo sapiens, UniProt Q9UBC3); test: Methyltransferase inhibition panel: DNMT3b/3L; type: biochemical
Experimental: as §1

EZH1 Complex = EZH1 Complex (Homo sapiens, UniProt Q92800); test: Methyltransferase inhibition panel: EZH1 Complex; type: biochemical; details: NT1721 20 μM; substrate Core Histone 0.05 mg/mL
Experimental: as §1

MLL1 Complex = MLL1 Complex (Homo sapiens, UniProt Q03164); test: Methyltransferase inhibition panel: MLL1 Complex; type: biochemical
Experimental: as §1

NRMT1 = molecular target: T1, NRMT1 (Homo sapiens, UniProt Q9BV86); test: Methyltransferase inhibition panel: NRMT1; type: biochemical
T1 sequence (Q9BV86 1-223): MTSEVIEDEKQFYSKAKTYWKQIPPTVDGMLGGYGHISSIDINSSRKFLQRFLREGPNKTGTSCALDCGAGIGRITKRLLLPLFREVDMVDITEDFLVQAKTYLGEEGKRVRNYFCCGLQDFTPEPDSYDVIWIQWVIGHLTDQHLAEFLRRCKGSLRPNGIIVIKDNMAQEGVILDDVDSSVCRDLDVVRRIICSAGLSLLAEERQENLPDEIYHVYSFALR
Experimental: as §1

PRMT3 = PRMT3 (Homo sapiens, UniProt O60678); test: Methyltransferase inhibition panel: PRMT3; type: biochemical
Experimental: as §1

PRMT8 = PRMT8 (Homo sapiens, UniProt Q9NR22); test: Methyltransferase inhibition panel: PRMT8; type: biochemical
Experimental: as §1

SUV39H1 = molecular target: T2, SUV39H1 (Homo sapiens, UniProt O43463); test: Methyltransferase inhibition panel: SUV39H1; type: biochemical
T2 sequence (O43463 1-412): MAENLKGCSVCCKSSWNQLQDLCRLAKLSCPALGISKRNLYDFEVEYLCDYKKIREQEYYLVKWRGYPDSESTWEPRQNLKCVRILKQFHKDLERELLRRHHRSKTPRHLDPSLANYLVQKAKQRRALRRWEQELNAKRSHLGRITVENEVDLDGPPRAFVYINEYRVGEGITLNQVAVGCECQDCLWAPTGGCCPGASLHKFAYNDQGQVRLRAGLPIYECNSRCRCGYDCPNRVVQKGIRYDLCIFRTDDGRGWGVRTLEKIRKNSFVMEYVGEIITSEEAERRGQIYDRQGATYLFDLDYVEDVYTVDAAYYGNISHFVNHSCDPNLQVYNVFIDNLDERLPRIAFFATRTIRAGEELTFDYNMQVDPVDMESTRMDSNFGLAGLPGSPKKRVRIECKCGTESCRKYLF
Experimental: as §1

SUV39H2 = SUV39H2 (Homo sapiens, UniProt Q9H5I1); test: Methyltransferase inhibition panel: SUV39H2; type: biochemical
Experimental: as §1

dendritic spines = test: Golgi-Cox staining of brain, dendritic spine quantification; type: in vivo, mice
From the text: The brain of 18-month old mice was stained with the Golgi-Cox method to detect the cytoarchitecture and morphology of neurons. FIG. 1A depicts representative images of the cingulate cortex (cc) of mice administered DMSO or ETP69. FIG. 1B depicts a representative hippocampus. FIG. 1C depicts a representative neuron from a DMSO treated and ETP69 treated hippocampus. FIG. 1D is a schematic of the quantification of neuronal spines.
The brains were stained with the Golgi-Cox method to detect the cytoarchitecture and morphology of neurons. Representative images are shown of mice treated with DMSO (FIG. 10A-10C) and ETP69 (FIG. 10D-10F). The number of dendritic spines are quantified. […] Further, ETP69 administration reduced epigenetic H3K9me3 repression mark in cell-specific manners. H3K9 expression was reduced in neurons (FIGS. 11A-11B), astrocytes (FIGS. 11C-11D), and microglia macrophages (FIGS. 11E-11F).
Loss of synapses and dendritic spine abnormalities are associated with cognitive decline. To analyze these features in old mice administered ETP69, Golgi-Cox neuronal staining and synaptic marker staining was performed in cerebral cortices and hippocampi. Dendritic spines were classified as thin (filopodia-like and long-thin), stubby, or mushroom spines according to their size and shape, and quantified the spine density from high-magnification photographs.

AD+ mice = test: Fear conditioning test; type: in vivo
Experimental: The effects of single and repeated ETP69 injections in mice were tested. The experimental timeline is depicted in FIG. 5. Three parallel injection conditions were tested: a single ETP69 condition, a boosted ETP69 injection, and repeated ETP69 injections. The single injection mice received one injection of ETP69 or DMSO at Day 0. The mice that received a boosted injection received one injection of ETP69 or DMSO at day 0 and one injection at day 9. The mice that received repeated injections received 11 injections of ETP69 or DMSO at day 0 or day 9. Both wildtype and AD model (APP/PS1-transgenic) mice were tested.
The results of the Open Field Barnes Maze test indicate hippocampal-based spatial memory. FIG. 7A depicts a schematic of the Barnes Maze Test. […] The results of the fear conditioning test indicate spatial memory.

PSD95 = PSD95 irradiance in brain; design: species or system mice; details: mouse, in vivo
BDNF and VGF pathways = test: Gene expression in treated mice (BDNF and VGF pathways); type: in vivo; details: mice treated with ETP69 vs DMSO
Experimental: Gene expression was measured in mice treated with ETP69 and DMSO. As depicted in FIG. 3, genes in the BDNF and VGF pathways were activated. These pathways are consistent with protective neurotrophic support. This pathway correlates with reduced H3K9me3 and improved cognition. FIG. 4A depicts genes in the BDNF pathway inhibited (left) and activated (right) by ETP69. The inactivated genes are quantified in FIGS. 4B-4F. The activated genes are quantified in FIGS. 4G-4M.

[1] = read-out: Enzyme % Activity (relative to DMSO controls) Data 1
[2] = read-out: Enzyme % Activity (relative to DMSO controls) Data 2
[3] = NT1721 20 μM, substrate Nucleosomes 0.05 mg/mL
[4] = 18-month old mice, cingulate cortex (cc) and hippocampus, vs DMSO
[5] = old (18-month-old) mice, 10 mg/kg i.p.

Chain of MLL1 Complex (Q03164 3745-3969): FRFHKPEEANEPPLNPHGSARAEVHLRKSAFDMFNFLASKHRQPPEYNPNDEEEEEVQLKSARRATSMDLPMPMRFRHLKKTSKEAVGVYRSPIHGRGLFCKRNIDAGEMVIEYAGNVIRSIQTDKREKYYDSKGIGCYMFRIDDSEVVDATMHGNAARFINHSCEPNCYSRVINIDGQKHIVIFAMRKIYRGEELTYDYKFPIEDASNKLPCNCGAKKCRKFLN
Chain of MLL1 Complex (Q9UBL3 96-628, further chain): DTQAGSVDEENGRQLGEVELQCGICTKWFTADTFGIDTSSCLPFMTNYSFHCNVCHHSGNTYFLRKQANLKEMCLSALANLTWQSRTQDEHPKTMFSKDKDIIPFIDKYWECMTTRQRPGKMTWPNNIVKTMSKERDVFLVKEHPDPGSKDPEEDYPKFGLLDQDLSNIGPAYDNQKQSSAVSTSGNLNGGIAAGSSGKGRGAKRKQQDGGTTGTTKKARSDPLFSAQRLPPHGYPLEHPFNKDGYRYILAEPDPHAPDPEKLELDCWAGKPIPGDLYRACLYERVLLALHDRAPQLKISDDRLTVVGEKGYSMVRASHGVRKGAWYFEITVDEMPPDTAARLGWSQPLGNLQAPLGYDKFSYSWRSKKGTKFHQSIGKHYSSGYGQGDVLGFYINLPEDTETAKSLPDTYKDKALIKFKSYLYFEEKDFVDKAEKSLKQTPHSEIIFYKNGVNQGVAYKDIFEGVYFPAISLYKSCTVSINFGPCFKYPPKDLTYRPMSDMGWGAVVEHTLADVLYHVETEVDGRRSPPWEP
Chain of MLL1 Complex (Q9C005 whole entry, further chain): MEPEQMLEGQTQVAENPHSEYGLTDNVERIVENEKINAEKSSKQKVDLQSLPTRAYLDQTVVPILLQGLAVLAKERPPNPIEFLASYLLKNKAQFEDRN
Chain of MLL1 Complex (Q15291 whole entry, further chain): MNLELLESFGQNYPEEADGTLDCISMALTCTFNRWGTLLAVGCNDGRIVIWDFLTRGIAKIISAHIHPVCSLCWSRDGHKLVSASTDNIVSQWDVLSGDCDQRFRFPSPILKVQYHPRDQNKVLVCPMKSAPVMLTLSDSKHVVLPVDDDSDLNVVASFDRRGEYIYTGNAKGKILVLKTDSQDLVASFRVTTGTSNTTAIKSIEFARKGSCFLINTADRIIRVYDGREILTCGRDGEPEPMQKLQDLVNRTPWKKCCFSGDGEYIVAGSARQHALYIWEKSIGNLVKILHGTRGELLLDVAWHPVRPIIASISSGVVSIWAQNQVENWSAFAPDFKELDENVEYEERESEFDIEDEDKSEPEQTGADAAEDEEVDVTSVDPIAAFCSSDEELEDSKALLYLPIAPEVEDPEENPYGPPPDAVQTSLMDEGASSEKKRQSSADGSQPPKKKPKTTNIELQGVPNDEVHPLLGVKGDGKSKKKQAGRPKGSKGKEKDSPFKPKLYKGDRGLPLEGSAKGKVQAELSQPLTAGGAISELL
Chain of SUV39H2 (Q9H5I1 whole entry): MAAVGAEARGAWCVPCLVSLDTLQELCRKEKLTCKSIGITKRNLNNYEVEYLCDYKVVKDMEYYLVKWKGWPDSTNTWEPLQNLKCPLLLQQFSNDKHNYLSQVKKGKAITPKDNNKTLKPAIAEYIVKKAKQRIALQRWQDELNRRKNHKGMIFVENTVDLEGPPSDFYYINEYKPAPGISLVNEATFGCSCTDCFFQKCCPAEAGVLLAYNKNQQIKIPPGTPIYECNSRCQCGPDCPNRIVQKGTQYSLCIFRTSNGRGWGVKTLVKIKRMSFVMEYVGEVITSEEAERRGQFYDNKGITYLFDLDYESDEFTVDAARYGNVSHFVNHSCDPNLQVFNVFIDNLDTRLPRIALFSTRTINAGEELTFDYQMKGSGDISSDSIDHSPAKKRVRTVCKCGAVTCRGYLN
Chain of PRMT3 (O60678 whole entry): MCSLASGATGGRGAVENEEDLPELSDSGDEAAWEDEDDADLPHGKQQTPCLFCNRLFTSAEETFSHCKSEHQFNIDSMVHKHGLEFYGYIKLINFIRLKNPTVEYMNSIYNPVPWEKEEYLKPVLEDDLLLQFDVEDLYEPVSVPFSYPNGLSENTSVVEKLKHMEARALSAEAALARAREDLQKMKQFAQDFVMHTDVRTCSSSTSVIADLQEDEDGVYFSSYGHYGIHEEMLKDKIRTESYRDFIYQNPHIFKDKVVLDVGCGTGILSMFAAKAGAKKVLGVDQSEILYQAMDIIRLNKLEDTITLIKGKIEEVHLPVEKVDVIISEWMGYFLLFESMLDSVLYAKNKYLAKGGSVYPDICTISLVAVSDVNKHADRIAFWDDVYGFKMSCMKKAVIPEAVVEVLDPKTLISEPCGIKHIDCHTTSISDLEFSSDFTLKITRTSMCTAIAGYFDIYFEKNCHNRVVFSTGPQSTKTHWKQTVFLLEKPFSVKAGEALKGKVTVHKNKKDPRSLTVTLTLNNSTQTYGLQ
Chain of DNMT1 (P26358 whole entry): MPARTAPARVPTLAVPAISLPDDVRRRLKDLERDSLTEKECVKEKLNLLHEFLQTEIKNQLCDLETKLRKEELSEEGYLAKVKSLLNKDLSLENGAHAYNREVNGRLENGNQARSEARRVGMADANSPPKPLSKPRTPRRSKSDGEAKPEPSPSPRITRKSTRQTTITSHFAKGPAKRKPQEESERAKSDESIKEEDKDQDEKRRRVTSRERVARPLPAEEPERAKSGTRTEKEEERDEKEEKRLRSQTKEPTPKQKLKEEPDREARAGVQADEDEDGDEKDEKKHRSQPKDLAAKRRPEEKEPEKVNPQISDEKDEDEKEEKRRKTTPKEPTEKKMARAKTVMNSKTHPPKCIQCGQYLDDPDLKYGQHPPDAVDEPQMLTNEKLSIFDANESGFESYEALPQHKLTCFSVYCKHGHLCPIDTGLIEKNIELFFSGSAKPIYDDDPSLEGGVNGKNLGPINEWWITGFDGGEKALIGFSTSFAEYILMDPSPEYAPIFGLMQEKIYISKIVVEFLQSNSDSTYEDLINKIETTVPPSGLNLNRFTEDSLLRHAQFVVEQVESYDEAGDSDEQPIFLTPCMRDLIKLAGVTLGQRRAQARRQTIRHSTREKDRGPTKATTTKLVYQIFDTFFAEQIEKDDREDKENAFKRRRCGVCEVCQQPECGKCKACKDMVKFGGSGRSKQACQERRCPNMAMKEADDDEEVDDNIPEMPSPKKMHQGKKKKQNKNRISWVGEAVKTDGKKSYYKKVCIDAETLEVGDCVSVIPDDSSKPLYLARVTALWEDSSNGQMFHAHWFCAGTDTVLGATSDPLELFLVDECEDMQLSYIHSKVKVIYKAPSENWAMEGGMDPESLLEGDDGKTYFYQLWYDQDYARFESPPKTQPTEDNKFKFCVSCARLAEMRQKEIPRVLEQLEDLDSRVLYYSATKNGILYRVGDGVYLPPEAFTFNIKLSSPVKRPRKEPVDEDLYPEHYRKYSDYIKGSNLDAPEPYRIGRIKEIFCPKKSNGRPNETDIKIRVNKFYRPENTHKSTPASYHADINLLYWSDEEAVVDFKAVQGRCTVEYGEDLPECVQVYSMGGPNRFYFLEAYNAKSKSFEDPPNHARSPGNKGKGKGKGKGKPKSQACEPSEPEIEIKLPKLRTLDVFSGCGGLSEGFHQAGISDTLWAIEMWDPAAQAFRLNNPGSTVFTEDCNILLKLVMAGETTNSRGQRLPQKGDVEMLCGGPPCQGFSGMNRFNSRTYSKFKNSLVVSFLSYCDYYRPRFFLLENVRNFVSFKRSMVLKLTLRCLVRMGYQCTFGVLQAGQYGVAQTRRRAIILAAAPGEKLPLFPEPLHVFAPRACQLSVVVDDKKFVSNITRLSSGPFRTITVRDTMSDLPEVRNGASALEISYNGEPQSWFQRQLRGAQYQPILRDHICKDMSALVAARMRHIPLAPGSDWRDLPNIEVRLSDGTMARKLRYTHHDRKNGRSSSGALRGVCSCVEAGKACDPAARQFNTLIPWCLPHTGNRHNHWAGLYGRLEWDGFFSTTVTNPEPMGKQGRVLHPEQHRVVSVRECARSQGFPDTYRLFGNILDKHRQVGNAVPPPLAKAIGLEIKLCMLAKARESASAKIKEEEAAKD
Chain of PRMT8 (Q9NR22 whole entry): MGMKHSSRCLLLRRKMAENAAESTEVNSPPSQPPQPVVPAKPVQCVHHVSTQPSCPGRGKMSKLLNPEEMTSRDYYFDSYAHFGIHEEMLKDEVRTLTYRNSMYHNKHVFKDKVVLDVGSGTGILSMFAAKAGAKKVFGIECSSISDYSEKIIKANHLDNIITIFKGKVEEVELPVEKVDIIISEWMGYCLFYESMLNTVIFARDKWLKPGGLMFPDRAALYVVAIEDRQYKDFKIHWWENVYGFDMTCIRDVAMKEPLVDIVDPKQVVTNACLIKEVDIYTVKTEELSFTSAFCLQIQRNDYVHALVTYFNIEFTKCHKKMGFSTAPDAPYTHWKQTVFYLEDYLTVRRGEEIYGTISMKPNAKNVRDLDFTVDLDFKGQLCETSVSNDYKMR

CN1C(=O)[C@@]23C[C@](C)(C#N)[C@H](c4ccc5c(c4)OCO5)N2C(=O)[C@]1(C)SS3 (racemic) [ETP69, Rac-(3S,6S,7S,8aS)-6-(benzo[d][1,3]dioxol-5-yl)-2,3,7-trimethyl-1,4-dioxohexahydro-6H-3,8a-epidithiopyrrolo[1,2-a]pyrazine-7-carbonitrile]
remaining activity at 20 µM (DNMT1; [1]): 105%
remaining activity at 20 µM (DNMT1; [2]): 108%
remaining activity at 20 µM (DNMT3b/3L; [1]): 113%
remaining activity at 20 µM (DNMT3b/3L; [2]): 111%
Enzyme % Activity (relative to DMSO controls) Data 1 (EZH1 Complex): 103.44%
Enzyme % Activity (relative to DMSO controls) Data 2 (EZH1 Complex): 104.86%
Enzyme % Activity (relative to DMSO controls) Data 1 (MLL1 Complex; [3]): 5.08%
Enzyme % Activity (relative to DMSO controls) Data 2 (MLL1 Complex; [3]): 5.33%
inhibition relative to DMSO controls (MLL1 Complex; summary of Table 1): at least 7500
remaining activity at 20 µM (NRMT1; [1]): 90.5%
remaining activity at 20 µM (NRMT1; [2]): 94.6%
remaining activity at 20 µM (PRMT3; [1]): 94%
remaining activity at 20 µM (PRMT3; [2]): 95%
remaining activity at 20 µM (PRMT8; [1]): 95.7%
remaining activity at 20 µM (PRMT8; [2]): 94.7%
remaining activity at 20 µM (SUV39H1; [1]): 2.36%
remaining activity at 20 µM (SUV39H1; [2]): 2.53%
inhibition relative to DMSO controls (SUV39H1; summary of Table 1): at least 7500
remaining activity at 20 µM (SUV39H2; [1]): 4.4%
remaining activity at 20 µM (SUV39H2; [2]): 4.4%
inhibition relative to DMSO controls (SUV39H2; summary of Table 1): at least 7500
dendritic spines (dendritic spines; [4]): increase
thin spines (dendritic spines; [4]): increase
number of dendritic spines (dendritic spines; Example 4 mice, cingulate cortex and hippocampus, vs DMSO): significantly increased
mushroom-to-total spine ratio (dendritic spines; [5]): lower
thin-to-total spine ratio (dendritic spines; [5]): higher
increase in the number of dendritic spines (dendritic spines; old (18-month-old) wildtype and neurodegenerative mice, hippocampus and cerebral cortex, 10 mg/kg i.p., vs DMSO control): 1.2 fold
freezing time (AD+ mice): increased
expression of PSD95 irradiance (PSD95): increased
genes in the BDNF and VGF pathways (BDNF and VGF pathways): activated
